The subject of this assay is MOLT-4. Description: Cytotoxicity against human MOLT4 cells. Format: functional, cell-based.

A value given as a limit tells only on which side of the number the result lay.

As a reminder, the EC50 is the concentration that produces a half-maximal response. A low value points to a more potent agent. For the compound `COC(C)(C)[C@@H](O)[C@H](O)C[C@H](C)[C@@H]1CC[C@]23C[C@]12CC[C@@H]1[C@@]2(C)CC[C@@H](OC(C)=O)C(C)(C)[C@@H]2C[C@@H](O[C@@H]2O[C@H](COC(C)=O)[C@@H](O)[C@H](O)[C@H]2O)[C@]13C` [CUMINGIANOSIDE C], the EC50 was less than 4.5 nM.

`CC(=O)OC[C@H]1O[C@@H](O[C@@H]2C[C@H]3C(C)(C)[C@H](OC(C)=O)CC[C@]3(C)[C@H]3CC[C@]45C[C@]4(CC[C@H]5[C@@H](C)C[C@@H](O)[C@H](O)C(C)(C)O)[C@@]32C)[C@H](O)[C@@H](O)[C@@H]1O` [CUMINGIANOSIDE A] displayed a concentration giving a half-maximal response (EC50) of less than 6.25 nM.

These data come from ChEMBL document CHEMBL1159234, “Antitumor agents, 157. Absolute structures of cumingianosides A-F, antileukemic triterpene glucosides, and structures of the hydrolysates of cumingianoside A” (J Nat Prod, 1995).
